Measurements as given in publication PMC10539361, “Allosteric modulation of the fish taste receptor type 1 (T1R) family by the extracellular chloride ion” (Scientific Reports, 2023).

Molecular target: T1, hT1R2/hT1R3 (Homo sapiens, UniProt Q7RTX0+Q8TE23)
T1 construct: expressed in transfected cells
T1 sequence (Q8TE23 20-839): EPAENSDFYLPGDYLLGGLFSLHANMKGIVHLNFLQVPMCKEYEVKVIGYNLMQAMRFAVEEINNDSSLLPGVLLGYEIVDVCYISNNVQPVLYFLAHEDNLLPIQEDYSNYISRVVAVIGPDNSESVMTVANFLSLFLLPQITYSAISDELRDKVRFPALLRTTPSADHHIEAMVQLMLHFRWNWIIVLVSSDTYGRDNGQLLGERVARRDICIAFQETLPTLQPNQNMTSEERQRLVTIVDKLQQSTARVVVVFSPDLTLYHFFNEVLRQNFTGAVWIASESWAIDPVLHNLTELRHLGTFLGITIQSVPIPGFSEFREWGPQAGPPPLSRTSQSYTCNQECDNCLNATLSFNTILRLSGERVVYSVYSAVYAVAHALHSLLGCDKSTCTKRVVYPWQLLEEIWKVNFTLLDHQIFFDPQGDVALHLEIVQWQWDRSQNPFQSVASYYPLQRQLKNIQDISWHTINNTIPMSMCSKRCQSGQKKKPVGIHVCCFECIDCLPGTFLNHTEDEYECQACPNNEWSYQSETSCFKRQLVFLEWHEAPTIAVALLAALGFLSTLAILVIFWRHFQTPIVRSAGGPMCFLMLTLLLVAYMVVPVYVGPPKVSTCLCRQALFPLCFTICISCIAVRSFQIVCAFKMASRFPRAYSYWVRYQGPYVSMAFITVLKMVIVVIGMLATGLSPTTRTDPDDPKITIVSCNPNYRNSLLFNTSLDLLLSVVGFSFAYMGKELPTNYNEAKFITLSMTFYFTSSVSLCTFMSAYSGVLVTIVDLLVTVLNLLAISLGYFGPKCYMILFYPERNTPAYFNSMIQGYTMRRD
T1 sequence (Q7RTX0 21-852): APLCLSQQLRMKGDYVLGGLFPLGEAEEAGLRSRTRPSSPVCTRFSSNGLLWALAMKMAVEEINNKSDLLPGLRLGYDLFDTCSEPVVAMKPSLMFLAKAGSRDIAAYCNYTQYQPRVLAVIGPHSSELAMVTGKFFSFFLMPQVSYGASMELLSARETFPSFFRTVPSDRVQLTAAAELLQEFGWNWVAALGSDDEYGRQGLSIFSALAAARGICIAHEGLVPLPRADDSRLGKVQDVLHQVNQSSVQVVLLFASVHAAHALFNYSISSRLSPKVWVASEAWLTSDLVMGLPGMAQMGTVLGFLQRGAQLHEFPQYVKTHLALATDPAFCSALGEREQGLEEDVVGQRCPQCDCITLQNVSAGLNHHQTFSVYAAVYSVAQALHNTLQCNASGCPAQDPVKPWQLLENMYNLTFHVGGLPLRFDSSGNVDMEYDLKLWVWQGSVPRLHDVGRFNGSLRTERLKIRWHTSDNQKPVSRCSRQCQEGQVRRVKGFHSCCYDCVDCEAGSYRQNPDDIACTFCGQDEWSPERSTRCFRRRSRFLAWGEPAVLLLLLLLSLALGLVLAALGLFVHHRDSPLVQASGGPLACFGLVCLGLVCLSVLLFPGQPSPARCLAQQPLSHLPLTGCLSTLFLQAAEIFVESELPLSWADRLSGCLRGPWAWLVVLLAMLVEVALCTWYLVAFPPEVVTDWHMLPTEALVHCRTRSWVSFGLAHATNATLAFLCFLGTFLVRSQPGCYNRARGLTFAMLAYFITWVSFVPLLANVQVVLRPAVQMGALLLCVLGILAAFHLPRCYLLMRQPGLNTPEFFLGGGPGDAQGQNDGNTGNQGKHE
Test: Effect of anions, cations and osmotic pressure on cellular responses, cells in 10 mM Cl- buffer, hT1R2/hT1R3
Assay type: cell-based
Conditions: for cellular response to the salt alone: without agonist, cells in 10 mM Cl- buffer
Method: Cells were seeded in 96-well plates coated with ε-poly-L-lysine at approximately 70,000 cells per well. […] Fluorescence changes were monitored at 2 s intervals, as described above. […] Three independent experiments were conducted for each receptor, and representative results are shown as the mean ± SEM (n = 3 replicates). Statistical tests were conducted using KyPlot version 6.0 (KyensLab Inc., Tokyo, Japan). Statistical significance was set at p < 0.05.

SMILES | cellular response to the salt alone | response intensity to sucralose on coapplication of the salt at higher concentrations (coapplied with 150 µM sucralose, above 60 mM final [Cl-]o or equivalent osmotic pressure) | response intensity to sucralose on coapplication of the salt (coapplied with 150 µM sucralose, up to 60 mM [Cl-]o, compared to response at 10 mM [Cl-]o)
O=C([O-])[C@H](O)[C@@H](O)[C@H](O)[C@H](O)CO.[Na+] [Na-gluconate, sodium gluconate] | neither NaCl nor Na-gluconate alone elicited cellular responses | – | –
[Cl-].[Na+] [NaCl] | neither NaCl nor Na-gluconate alone elicited cellular responses | decreased | no significant difference
